Measured values as given in PubChem BioAssay AID256 (DTP/NCI, 2004).
Inconclusive results and toxic doses are left out. Rule for the calls: active = survival T/C of 150% or more; inactive = T/C below 125% in these data.

Tested on: CD2F1 mice, L1210 leukemia ip, survival T/C
Assay: NCI In Vivo Anticancer Drug Screen. Data for tumor model L1210 Leukemia (intraperitoneal) in CD2F1 (CDF1) mice
Conditions: higher = longer survival
Method in brief: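 Compound-dosed mice with transplantable tumor versus matched vehicle controls; endpoint ratio T/C reported.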

[1] = endpoint: mean survival time, dose: 50.0 mg/kg/injection, schedule: Q01DX009 (ip), vehicle: saline with Tween-80
[2] = endpoint: mean survival time, dose: 100.0 mg/kg/injection, schedule: Q01DX009 (ip), vehicle: saline with Tween-80
[3] = endpoint: mean survival time, dose: 200.0 mg/kg/injection, schedule: Q01DX009 (ip), vehicle: saline with Tween-80

Measured: T/C

O=S1(=O)CC(Br)C(Br)C1 (stereo unspecified)
inactive: [1] 88 % of control | [2] 100 % of control | endpoint: mean survival time, dose: 100.0 mg/kg/injection, schedule: Q04DX003 (ip), vehicle: saline with Tween-80 106 % of control | [3] 110 % of control | endpoint: mean survival time, dose: 200.0 mg/kg/injection, schedule: Q04DX003 (ip), vehicle: saline with Tween-80 107 % of control | endpoint: mean survival time, dose: 400.0 mg/kg/injection, schedule: Q04DX003 (ip), vehicle: saline with Tween-80 100 % of control

NC(=O)C(CSCc1ccccc1)NC(=O)OCc1ccccc1 (stereo unspecified)
inactive: [2] 91 % of control | [3] 88 % of control | endpoint: mean survival time, dose: 400.0 mg/kg/injection, schedule: Q01DX009 (ip), vehicle: saline with Tween-80 91 % of control

C1C2OC2CC2OC12 (stereo unspecified)
inactive: endpoint: mean survival time, dose: 100.0 mg/kg/injection, schedule: Q01DX001 (ip), vehicle: saline with Tween-80 97 % of control | endpoint: mean survival time, dose: 200.0 mg/kg/injection, schedule: Q01DX001 (ip), vehicle: saline with Tween-80 97 % of control | endpoint: mean survival time, dose: 400.0 mg/kg/injection, schedule: Q01DX001 (ip), vehicle: saline with Tween-80 98 % of control

CSCCC(NC(=O)CN)C(=O)O (stereo unspecified)
inactive: [1] 96 % of control | [2] 92 % of control | [3] 100 % of control

COCS(=O)[O-].[C-]#[O+].[C-]#[O+].[Fe+6].[c-]1[c-][c-][cH-][c-]1
inactive: endpoint: mean survival time, dose: 12.5 mg/kg/injection, schedule: Q04DX002 (ip), vehicle: saline 101 % of control | endpoint: mean survival time, dose: 25.0 mg/kg/injection, schedule: Q04DX002 (ip), vehicle: saline 93 % of control | endpoint: mean survival time, dose: 50.0 mg/kg/injection, schedule: Q04DX002 (ip), vehicle: saline 96 % of control

Cc1ccc(NC(=O)NC(C)C)c(C)c1
inactive: endpoint: mean survival time, dose: 6.25 mg/kg/injection, schedule: Q01DX009 (ip), vehicle: saline with Tween-80 97 % of control | endpoint: mean survival time, dose: 12.5 mg/kg/injection, schedule: Q01DX009 (ip), vehicle: saline with Tween-80 100 % of control | endpoint: mean survival time, dose: 25.0 mg/kg/injection, schedule: Q01DX009 (ip), vehicle: saline with Tween-80 97 % of control

NC(=Nc1ccccc1)Nc1ccccc1
inactive: endpoint: mean survival time, dose: 6.25 mg/kg/injection, schedule: Q04DX002 (ip), vehicle: Klucel (hydroxypropylcellulose) (HPC) 96 % of control | endpoint: mean survival time, dose: 12.5 mg/kg/injection, schedule: Q04DX002 (ip), vehicle: Klucel (hydroxypropylcellulose) (HPC) 86 % of control | endpoint: mean survival time, dose: 25.0 mg/kg/injection, schedule: Q04DX002 (ip), vehicle: Klucel (hydroxypropylcellulose) (HPC) 92 % of control | [1] 101 % of control

Nc1nc(F)nc2c1ncn2C1CC(O)C(CO)O1 (stereo unspecified)
inactive: endpoint: mean survival time, dose: 75.0 mg/kg/injection, schedule: Q01DX001 (ip), vehicle: saline 105 % of control | endpoint: mean survival time, dose: 100.0 mg/kg/injection, schedule: Q01DX001 (ip), vehicle: other 113 % of control | endpoint: mean survival time, dose: 150.0 mg/kg/injection, schedule: Q01DX001 (ip), vehicle: saline 109 % of control | endpoint: mean survival time, dose: 200.0 mg/kg/injection, schedule: Q01DX001 (ip), vehicle: other 110 % of control | endpoint: mean survival time, dose: 400.0 mg/kg/injection, schedule: Q01DX001 (ip), vehicle: other 107 % of control
active: endpoint: median survival time, dose: 25.0 mg/kg/injection, schedule: Q03HX024 (ip), vehicle: saline with Tween-80 219 % of control | endpoint: median survival time, dose: 30.0 mg/kg/injection, schedule: Q03HX024 (ip), vehicle: saline with Tween-80 234 % of control | endpoint: median survival time, dose: 30.0 mg/kg/injection, schedule: Q03HX024 (ip), vehicle: saline 211 % of control | endpoint: median survival time, dose: 35.0 mg/kg/injection, schedule: Q03HX024 (ip), vehicle: saline with Tween-80 250 % of control | endpoint: median survival time, dose: 40.0 mg/kg/injection, schedule: Q03HX024 (ip), vehicle: saline with Tween-80 158 % of control | endpoint: median survival time, dose: 40.0 mg/kg/injection, schedule: Q03HX024 (ip), vehicle: saline 227 % of control

CNc1nc(N(C)C)nc(N(C)C)n1
inactive: endpoint: mean survival time, dose: 6.25 mg/kg/injection, schedule: Q01DX009 (ip), vehicle: saline 97 % of control | endpoint: mean survival time, dose: 6.25 mg/kg/injection, schedule: Q01DX009 (ip), vehicle: water 107 % of control | endpoint: mean survival time, dose: 12.5 mg/kg/injection, schedule: Q01DX009 (ip), vehicle: saline 97 % of control | endpoint: mean survival time, dose: 12.5 mg/kg/injection, schedule: Q01DX009 (ip), vehicle: water 104 % of control | endpoint: mean survival time, dose: 25.0 mg/kg/injection, schedule: Q01DX009 (ip), vehicle: saline 100 % of control | endpoint: mean survival time, dose: 25.0 mg/kg/injection, schedule: Q01DX009 (ip), vehicle: water 104 % of control | endpoint: mean survival time, dose: 50.0 mg/kg/injection, schedule: Q01DX009 (ip), vehicle: saline 101 % of control | endpoint: mean survival time, dose: 50.0 mg/kg/injection, schedule: Q01DX009 (ip), vehicle: water 110 % of control | endpoint: mean survival time, dose: 100.0 mg/kg/injection, schedule: Q01DX009 (ip), vehicle: saline 111 % of control | endpoint: mean survival time, dose: 100.0 mg/kg/injection, schedule: Q01DX009 (ip), vehicle: water 119 % of control
